How the values were obtained:
[1] = target: T1, Flavin-containing monooxygenase 5 (Homo sapiens, UniProt P49326); test: Drug metabolism assessed as human recombinant FMO5-mediated ER-879123 formation in presence of human liver cytosolic fractions at 50 uM after 60 mins by LC-MS/MS method; format: ADME, tissue-based; conditions: recombinant enzyme, 1 h
T1 sequence (P49326 whole entry): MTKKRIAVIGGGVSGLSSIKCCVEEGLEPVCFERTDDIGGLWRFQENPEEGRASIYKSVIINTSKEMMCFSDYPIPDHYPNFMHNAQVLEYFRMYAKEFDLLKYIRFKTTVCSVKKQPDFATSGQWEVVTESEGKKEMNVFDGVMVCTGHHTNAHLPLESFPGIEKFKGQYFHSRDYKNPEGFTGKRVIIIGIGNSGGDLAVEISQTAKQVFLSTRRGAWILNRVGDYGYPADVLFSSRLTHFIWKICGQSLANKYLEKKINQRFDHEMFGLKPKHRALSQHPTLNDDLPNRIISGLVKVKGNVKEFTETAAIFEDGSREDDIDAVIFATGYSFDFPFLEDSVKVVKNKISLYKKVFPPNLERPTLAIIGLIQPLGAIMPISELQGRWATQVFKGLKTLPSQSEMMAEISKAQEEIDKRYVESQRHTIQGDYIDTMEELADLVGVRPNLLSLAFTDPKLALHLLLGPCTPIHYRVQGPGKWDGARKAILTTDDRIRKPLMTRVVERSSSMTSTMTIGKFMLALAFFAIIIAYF

[2] = Drug metabolism in dog liver S9 fraction assessed as ER-879123 formation at 50 uM after 60 mins in presence of NAD+ by LC-MS/MS method; format: ADME, subcellular, Canis lupus familiaris; conditions: s9, 1 h
[3] = target: T1, Flavin-containing monooxygenase 5; test: Drug metabolism assessed as human recombinant FMO5-mediated ER-879123 formation in absence of human liver cytosolic fractions at 50 uM after 60 mins by LC-MS/MS method; format: ADME, tissue-based; conditions: recombinant enzyme, 1 h
[4] = target: T1, Flavin-containing monooxygenase 5; test: Drug metabolism assessed as human recombinant FMO5-mediated ER-879123 formation in presence of rat liver cytosolic fractions at 50 uM after 60 mins by LC-MS/MS method; format: ADME, tissue-based; conditions: recombinant enzyme, 1 h
[5] = target: T1, Flavin-containing monooxygenase 5; test: Drug metabolism assessed as human recombinant FMO5-mediated ER-879123 formation in absence of dog liver cytosolic fractions at 50 uM after 60 mins by LC-MS/MS method; format: ADME, tissue-based; conditions: recombinant enzyme, 1 h
[6] = Drug metabolism in 50 degC treated dog liver S9 fraction assessed as ER-879123 formation at 50 uM after 60 mins in absence of NAD+ by LC-MS/MS method; format: ADME, tissue-based, Canis lupus familiaris; conditions: s9, 1 h
[7] = system: Liver microsome; test: Drug metabolism in human liver microsomes assessed as ER-879123 formation at 50 uM after 60 mins in presence of NADPH by LC-MS/MS method; format: ADME; conditions: 1 h
[8] = target: T1, Flavin-containing monooxygenase 5; test: Drug metabolism assessed as human recombinant FMO5-mediated ER-879123 formation in absence of rat liver cytosolic fractions at 50 uM after 60 mins by LC-MS/MS method; format: ADME, tissue-based; conditions: recombinant enzyme, 1 h
[9] = Drug metabolism in human liver S9 fraction assessed as ER-879123 formation at 50 uM after 60 mins in presence of NAD+ and alcohol dehydrogenase inhibitor 4-methylpyrazole by LC-MS/MS method; format: ADME, subcellular; conditions: s9, 1 h
[10] = Drug metabolism in human hepatocytes assessed as ER-879123 formation at 50 uM after 120 mins in presence of NADPH by LC-MS/MS method; format: ADME, cell-based, Hepatocyte; conditions: 2 h
[11] = Drug metabolism in 50 degC treated human liver S9 fraction assessed as ER-879123 formation at 50 uM after 60 mins in absence of NAD+ by LC-MS/MS method; format: ADME, tissue-based; conditions: s9, 1 h
[12] = system: Liver microsome; test: Drug metabolism in rat liver microsomes assessed as ER-879123 formation at 50 uM after 60 mins in presence of NADPH by LC-MS/MS method; format: ADME; conditions: 1 h
[13] = Drug metabolism in dog liver S9 fraction assessed as ER-879123 formation at 50 uM after 60 mins in presence of NADP+ by LC-MS/MS method; format: ADME, subcellular, Canis lupus familiaris; conditions: s9, 1 h
[14] = target: T1, Flavin-containing monooxygenase 5; test: Drug metabolism assessed as human recombinant FMO5-mediated ER-879123 formation in presence of dog liver cytosolic fractions at 50 uM after 60 mins by LC-MS/MS method; format: ADME, tissue-based; conditions: recombinant enzyme, 1 h
[15] = Drug metabolism in human liver S9 fraction assessed as ER-879123 formation at 50 uM after 60 mins in presence of NAD+ and carboxylesterase inhibitor BNPP by LC-MS/MS method; format: ADME, subcellular; conditions: 1 h
[16] = Drug metabolism in dog liver S9 fraction assessed as ER-879123 formation at 50 uM after 60 mins in presence of NAD+ and FMO1 and FMO3 substrate/inhibitor methimazole by LC-MS/MS method; format: ADME, subcellular, Canis lupus familiaris; conditions: s9, 1 h
[17] = Drug metabolism in human liver S9 fraction assessed as ER-879123 formation at 50 uM after 60 mins in presence of NAD+ and FMO1 and FMO3 substrate/inhibitor methimazole by LC-MS/MS method; format: ADME, subcellular; conditions: s9, 1 h
[18] = Drug metabolism in human liver S9 fraction assessed as ER-879123 formation at 50 uM after 60 mins in presence of NADP+ by LC-MS/MS method; format: ADME, subcellular; conditions: s9, 1 h
[19] = Drug metabolism in dog liver S9 fraction assessed as ER-879123 formation at 50 uM after 60 mins in presence of NAD+ and carboxylesterase inhibitor BNPP by LC-MS/MS method; format: ADME, subcellular, Canis lupus familiaris; conditions: 1 h
[20] = Drug metabolism in dog liver S9 fraction assessed as ER-879123 formation at 50 uM after 60 mins in presence of NAD+ and alcohol dehydrogenase inhibitor 4-methylpyrazole by LC-MS/MS method; format: ADME, subcellular, Canis lupus familiaris; conditions: s9, 1 h
[21] = system: Liver microsome; test: Drug metabolism in dog liver microsomes assessed as ER-879123 formation at 50 uM after 60 mins in presence of NADPH by LC-MS/MS method; format: ADME, Canis lupus familiaris; conditions: 1 h
[22] = Drug metabolism in rat hepatocytes assessed as ER-879123 formation at 50 uM after 120 mins in presence of NADPH by LC-MS/MS method; format: ADME, cell-based, Hepatocyte; conditions: 2 h
[23] = Drug metabolism in human liver S9 fraction assessed as ER-879123 formation at 50 uM after 60 mins in presence of NAD+ by LC-MS/MS method; format: ADME, subcellular; conditions: s9, 1 h
[24] = target: T2, Flavin-containing monooxygenase 3 (Homo sapiens, UniProt P31513); test: Drug metabolism assessed as human recombinant FMO3-mediated ER-879123 formation in presence of dog liver cytosolic fractions and NAD+ at 50 uM after 60 mins by LC-MS/MS method; format: ADME, tissue-based; conditions: recombinant enzyme, 1 h
T2 sequence (P31513 whole entry): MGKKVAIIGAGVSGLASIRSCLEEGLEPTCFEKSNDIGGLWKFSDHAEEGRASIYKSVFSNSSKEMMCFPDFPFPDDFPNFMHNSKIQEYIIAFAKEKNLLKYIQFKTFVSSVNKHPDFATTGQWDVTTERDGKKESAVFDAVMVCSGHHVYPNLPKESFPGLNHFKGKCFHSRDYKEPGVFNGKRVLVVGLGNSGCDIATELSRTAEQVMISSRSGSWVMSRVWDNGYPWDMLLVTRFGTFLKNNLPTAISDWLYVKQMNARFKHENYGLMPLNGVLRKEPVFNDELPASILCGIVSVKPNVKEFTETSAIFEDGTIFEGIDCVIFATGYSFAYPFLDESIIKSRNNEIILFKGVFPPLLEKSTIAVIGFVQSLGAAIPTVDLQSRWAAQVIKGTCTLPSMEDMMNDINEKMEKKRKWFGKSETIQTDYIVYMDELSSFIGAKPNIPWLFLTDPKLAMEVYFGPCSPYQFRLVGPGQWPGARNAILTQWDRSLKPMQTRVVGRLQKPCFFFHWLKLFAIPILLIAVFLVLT

[25] = Drug metabolism in dog hepatocytes assessed as ER-879123 formation at 50 uM after 120 mins in presence of NADPH by LC-MS/MS method; format: ADME, cell-based, Canis lupus familiaris, Hepatocyte; conditions: 2 h
[26] = target: T3, Flavin-containing monooxygenase 1 (Homo sapiens, UniProt Q01740); test: Drug metabolism assessed as human recombinant FMO1-mediated ER-879123 formation in presence of dog liver cytosolic fractions and NAD+ at 50 uM after 60 mins by LC-MS/MS method; format: ADME, tissue-based; conditions: recombinant enzyme, 1 h
T3 sequence (Q01740 whole entry): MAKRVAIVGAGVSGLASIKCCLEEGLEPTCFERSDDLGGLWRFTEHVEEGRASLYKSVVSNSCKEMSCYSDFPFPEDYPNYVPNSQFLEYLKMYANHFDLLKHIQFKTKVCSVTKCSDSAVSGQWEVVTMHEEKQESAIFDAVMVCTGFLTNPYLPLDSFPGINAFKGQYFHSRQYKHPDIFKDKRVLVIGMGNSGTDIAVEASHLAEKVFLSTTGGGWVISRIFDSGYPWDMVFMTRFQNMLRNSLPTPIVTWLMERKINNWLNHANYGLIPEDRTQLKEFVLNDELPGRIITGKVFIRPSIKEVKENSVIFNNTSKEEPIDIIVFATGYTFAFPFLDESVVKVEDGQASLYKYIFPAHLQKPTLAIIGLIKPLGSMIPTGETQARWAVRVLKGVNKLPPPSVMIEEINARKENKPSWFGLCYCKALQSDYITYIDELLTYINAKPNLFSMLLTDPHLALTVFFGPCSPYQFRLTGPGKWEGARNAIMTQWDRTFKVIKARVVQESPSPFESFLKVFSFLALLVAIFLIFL

Measured: Drug metabolism

O=c1[nH]nc2c3c(cccc13)Oc1ccc(CN3CCC(O)CC3)cc1-2 [E-7016]
metabolite_detected: [1] | [2] | [4] | [10] | [13] | [14] | [16] | [17] | [18] | [22] | [23] | [25]
metabolite_not_detected: all other assays above

From ChEMBL document CHEMBL3525952, “A Baeyer-Villiger oxidation specifically catalyzed by human flavin-containing monooxygenase 5” (Drug Metab Dispos, 2011)
